Experimental data: patent US20240261296A1, “THERAPEUTIC MODALITIES FOR INHIBITING PANCREATIC BETA CELL IMPAIRMENT AND TREATING DIABETES” (Hadasit Medical Research Serices & Development Ltd., priority 2021, published 2024)

Assays:
human islet cells = test: Caspase-Glo 3/7 assay in palmitic acid-treated human islets; format: cell-based; set-up: rescuing human islet cells from apoptosis, compared with L-798106 / inhibiting or reversing palmitate-induced apoptosis in pancreatic islets of both human donors / inhibition of palmitate-induced apoptosis in human islets, donor 1: dose or concentration left out as unconfirmed; conditions: palmitic acid, 48 h; for rescuing human islet cells from apoptosis, compared with L-798106: two human donors
Description: (§1) Islet and cell culture: The pancreatic β-cell line MIN6, which is a clonal murine insulin-secreting line, was cultured in DMEM (Biological Industries, Beit Haemek, Israel) supplemented with 11 mM Glucose, 2 mM glutamine, 15% heat-inactivated fetal calf serum (FCS), 100 U/ml penicillin, 100 µg/ml streptomycin and 61 μM β-mercaptoethanol. Human islets were obtained from the European Consortium for Islet Transplantation (ECIT) at the San Raffaele Hospital and from the Niguarda Hospital, (Milan, Italy) and cultured in CMRL-1066 media (Biological Industries, Beit HaEmek, Israel) supplemented with 10% FCS, 5.5 mM glucose, 2 mM L-Glutamine, 100 U/ml penicillin, 100 μg/ml streptomycin and 150 μg/ml gentamycin. Palmitate was added to 1% FCS and 0.5% defatted BSA (Roche, Germany).
Next, the ability of the compounds to rescue human islet cells from palmitate-induced apoptosis was determined. To this end, the Caspase-Glo 3/7 assay reagent (Promega) was used for caspase 3/7 detection in palmitic acid-treated cells. The reagent provides a proluminescent caspase-3/7 substrate, which contains the tetrapeptide sequence DEVD, in combination with luciferase and a cell-lysing agent. The addition of the reagent directly to the wells results in cell lysis, followed by caspase cleavage of the DEVD substrate, and the generation of luminescence.
Accordingly, human islets from two donors were exposed to the various compounds or to L-798106 for 48 h in the presence of palmitic acid, and the bioluminescence was measured as compared to control cells. FIGS. 3A-3B show the results of the treatment with […] of the compounds in two human donors (FIG. 3A—donor 1, FIG. 3B—donor 2). PA: Palmitate; L: L-798106; RLU: Relative Light Units. The results are average of triplicates or quadruplicates ±SEM (except in islets from L-798106 treated donor 2, representing duplicates).
Next, various concentrations of the compounds were tested in human pancreatic islet cells. Cells obtained from the first healthy donor (donor 1) were incubated in the presence or absence of PA with C13, C5 or L-798106 (L) at concentrations of 5, 2.5 and 0.5 μM. Caspase 3/7 enzymatic activity was measured as described above. The enzymatic activity is presented in FIG. 5A for 5 μM, FIG. 5B for 2.5 μM and FIG. 5C for 0.5 μM as relative light units (RLU/μg protein) and the graphs represent the average of n=3-4.

db/db mice [1] = test: random blood glucose levels in db/db and control mice; format: in vivo; conditions: for average random blood glucose levels in db/db mice: 8 weeks gavage, compared to the vehicle; for random blood glucose levels at 8 weeks: compared with L-798106 treated mice
Description: The effects of the compounds were tested in an in vivo model of diabetes. To this end, C57BLKS/J mice with the leptin receptor mutation (BKS-db; BKS.Cg-Dock7m+/+Leprdb/J), known as an animal model characteristic of human T2DM, were used, when both male and female homozygotes to Leprb mutation (db/db) develop spontaneous T2DM with phenotypes that include: (I) severe obesity, (II) progressive and sustained hyperglycemia, when the course of the disease is markedly influenced by genetic background BLKS (in contrast to regular C57BL/6J background mice with the same mutation (B6-db), (III) glucose intolerance resulting in elevated serum cholesterol, glucose, and triglycerides, and (VI) elevations of plasma blood sugar resulting in severe depletion of the insulin-producing β-cells of the pancreatic islets, and eventually death.
Two sets of experiments with two colonies of homozygote mice were performed with the C5 and C13 compounds (n=5 for each experiment), compared to L-798106. The compounds were administered to 7-8-week-old mice by oral gavage (2.5 mg/kg/day) for eight weeks. Control group (n=10-15) received vehicle (DMSO in PBS). Blood glucose was randomly tested throughout the experiment.
To test the effect of the compounds C15, C17 and C20 on random blood glucose levels, control and db/db mice underwent essentially the same treatment course and measurements as described in Example 9.

db/db mice [2] = test: intraperitoneal glucose tolerance test (IPGTT); format: in vivo; conditions: 8 weeks oral 2.5 mg/kg/day; glucose 1 g/kg; all time points; vs vehicle
Description: Lepr^db/db homozygotes (db/db) and heterozygote Lepr^db/+ (wild type) mice were treated daily with 2.5 mg/kg/day oral administration of the Vehicle, the commercial EP3 antagonist L-798106 and the compounds C5 and C13 for 8 weeks, as described in Example 9. A glucose tolerance test (Intraperitoneal glucose tolerance test, IPGTT) was performed following four weeks and eight weeks of the onset of treatment, as follows. Glucose (1 g/kg) was injected following 8 hours of fasting, and blood glucose was measured at baseline and at 30-, 60-, 90- and 120-minutes post glucose administration.
Heterozygote (wild type) and diabetic db/db mice were treated daily with the Vehicle, L-798106 and the compounds C17 and C20 for 8 weeks, essentially as described in Example 9. A glucose tolerance test (IPGTT) was performed essentially as described in Example 10.

[3] = blood insulin concentrations by serum C-peptide ELISA; format: in vivo; conditions: 8 weeks oral treatment; vs vehicle-treated diabetic mice
Description: At the end of the 8 week-long period of treatment as described in Example 9, mice were sacrificed and blood samples were collected, and analyzed for different parameters as detailed below.
Blood insulin concentrations.
Blood insulin concentrations. Following 8 weeks of treatment, blood samples were collected and the levels of insulin in the collected sera were assessed essentially as described in Example 12. The results are presented in FIG. 28, in which the different test groups as presented in FIG. 28 are represented as described in Example 14 and “ns” indicates non-significant differences. The numbers of tested mice are as follows: vehicle (n=10), L-798106 (n=10), C17 (n=5), C20 (n=5).

MIN6 cells = test: rescue of MIN6 cells from palmitate-induced apoptosis (cleaved caspase 3 western blot; FACS SubG1); format: cell-based, murine; conditions: palmitic acid 0.3 mM, 48 hours; compared to L-798106
Description: as §1
Western blotting: Cells were lyzed in Laemmli protein sample buffer, separated on SDS-polyacrylamide gel, and transferred to […] nitrocellulose membranes (Schleicher and Schuell, Dassel, Germany). After blocking in 5% dried skimmed milk, the membranes were first incubated with the appropriate antibodies against: cleaved caspase-3 (Asp175) (Cell Signaling Technology Danvers, MA) and α-tubulin (Sigma-Aldrich.) and then with horseradish peroxidase conjugated anti-rabbit or anti-mouse IgG, followed by analysis with an enhanced chemiluminescence detection kit (Biological Industries, Israel).
The remaining compounds were screened for the ability to rescue β-cells from palmitate-induced apoptosis as compared to the commercial EP3 antagonist L-798106 by measuring the levels of the cleaved caspase 3 apoptotic marker, using Western Blot analysis (FIG. 1). […] Cell extracts were analyzed by western blotting for the presence of cleaved caspase 3 as compared to α-Tubulin.
The ability of the compounds to rescue β-cells from apoptosis was also evaluated using FACS analysis and measuring the SubG1 population (FIG. 2). […] Collected cells were analyzed by FACS and the SubG1 fractions (representing apoptotic cell products or components were compared. The average of 4-6 independent experiments is presented in FIG. 2.

db/db mice [4] = test: Insulin Tolerance Test (ITT); format: in vivo; conditions: 8 weeks oral treatment; 0.75 U/kg insulin; all time points; vs vehicle
Description: An Insulin Tolerance Test (ITT) was conducted to determine the effect of the test compounds on insulin resistance, following oral administration of Vehicle or the tested compounds as described in Example 9. To this end, the different treated groups were further subjected to a subsequent 5-hour fast and then injected with 0.75 U/kg insulin. Blood glucose was measured at the time of insulin injection (baseline level) and at the indicated time intervals thereafter. Blood glucose levels and AUC of the wild-type mice are presented in FIGS. 19A-19B respectively, and blood glucose levels and AUC of the db/db mice are presented in FIGS. 19C-19D respectively. The different test groups as presented in FIGS. 19A-19D are represented as described in Example 9.
To determine the effect of the C17 and C20 compounds on insulin resistance, an ITT was conducted essentially as described in Example 11. Blood glucose levels and AUC of the wild-type mice are presented in FIGS. 27A-27B respectively (n=5-15), and blood glucose levels and AUC of the db/db mice are presented in FIGS. 27C-27D respectively (n=5-10). The different test groups as presented in FIGS. 27A-27D are represented as described in Example 14.

pancreatic β-cell = conditions: chow and high-fat diet islets; cited from earlier work

Compound: CCn1nc(C)c(S(=O)(=O)Nc2ccc(Cl)cc2C(=O)c2ccc[nH]2)c1C [Compound C10, N-(4-chloro-2-(1H-pyrrole-2-carbonyl)phenyl)-1-ethyl-3,5-dimethyl-1H-pyrazole-4-sulfonamide]
- inhibiting or reversing palmitate-induced apoptosis in pancreatic islets of both human donors (human islet cells): failed to inhibit

Compound: COc1cc(/C=C(\CCC(=O)O)c2nc3ccccc3s2)ccc1OCc1ccccc1 [Compound C15, (E)-4-(benzo[d]thiazol-2-yl)-5-(4-(benzyloxy)-3-methoxyphenyl)pent-4-enoic acid]
- average random blood glucose levels in db/db mice (db/db mice [1]): effective in lowering average blood glucose levels
- rescuing human islet cells from apoptosis, compared with L-798106 (human islet cells): to a greater extent than the EP3 antagonist L-798106

Compound: Cc1n[nH]c(C)c1S(=O)(=O)Nc1ccccc1C(=O)N[C@@H](C)c1ccccc1 [Compound C4, (S)-2-((3,5-dimethyl-1H-pyrazole)-4-sulfonamido)-N-(1-phenylethyl)benzamide]
- inhibition of palmitate-induced apoptosis in human islets, donor 1 (human islet cells): moderate inhibitory activity comparable to that of L-798106

Compound: COc1cc(/C=C(/CC(=O)O)c2nc3ccccc3s2)ccc1OCc1cccc(C(F)(F)F)c1 [Compound C17, (Z)-3-(benzo[d]thiazol-2-yl)-4-(3-methoxy-4-((3-(trifluoromethyl)benzyl)oxy)phenyl)but-3-enoic acid]
- hyperglycemia in IPGTT, db/db mice (db/db mice [2]): significantly alleviated hyperglycaemia
- blood insulin levels (serum C-peptide) in diabetic mice [3]: the differences did not reach statistical significance
- rescue of β-cells from palmitate-induced apoptosis (cleaved caspase 3; SubG1 population) (MIN6 cells): exceptionally high efficacy
- glucose levels after insulin injection (insulin sensitivity), db/db mice (db/db mice [4]): Improve Insulin Sensitivity
- average random blood glucose levels in db/db mice (db/db mice [1]): effective in lowering average blood glucose levels
- random blood glucose levels at 8 weeks (db/db mice [1]): the same blood glucose levels as the L-798106 treated mice
- rescuing human islet cells from apoptosis, compared with L-798106 (human islet cells): to a greater extent than the EP3 antagonist L-798106

Compound: Cc1nn(C)c(C)c1C[C@@H](C)NC(=O)c1ccc(S(=O)(=O)Nc2ccccc2F)cc1 [Compound C9, (R)-4-(N-(2-fluorophenyl)sulfamoyl)-N-(1-(1,3,5-trimethyl-1H-pyrazol-4-yl)propan-2-yl)benzamide]
- inhibition of palmitate-induced apoptosis in human islets, donor 1 (human islet cells): marked inhibitory activity

Compound: C=C1C(=O)OC(CCCCCCCC)C1C(=O)O (stereo not drawn) [Compound C75]
- glucose-induced insulin secretion (pancreatic β-cell): markedly reduced
- β cell electrical activity (pancreatic β-cell): markedly reduced

Compound: COc1cc(/C=C(\CCC(=O)O)c2nc3ccccc3s2)ccc1OCc1ccc(F)cc1 [Compound C20, (E)-4-(benzo[d]thiazol-2-yl)-5-(4-((4-fluorobenzyl)oxy)-3-methoxyphenyl)pent-4-enoic acid]
- hyperglycemia in IPGTT, db/db mice (db/db mice [2]): significantly alleviated hyperglycaemia
- blood insulin levels (serum C-peptide) in diabetic mice [3]: the differences did not reach statistical significance
- glucose levels after insulin injection (insulin sensitivity), db/db mice (db/db mice [4]): Improve Insulin Sensitivity
- average random blood glucose levels in db/db mice (db/db mice [1]): effective in lowering average blood glucose levels
- random blood glucose levels at 8 weeks (db/db mice [1]): the same blood glucose levels as the L-798106 treated mice
- rescuing human islet cells from apoptosis, compared with L-798106 (human islet cells): to a greater extent than the EP3 antagonist L-798106

Compound: COc1ccc([C@@H](CC(=O)O)NC(=O)c2cn(Cc3cccc(F)c3)nn2)cc1OC [Compound C12, (R)-3-(3,4-dimethoxyphenyl)-3-(1-(3-fluorobenzyl)-1H-1,2,3-triazole-4-carboxamido)propanoic acid]
- rescuing human islet cells from apoptosis, compared with L-798106 (human islet cells): to a greater extent than the EP3 antagonist L-798106
